Results from the NIST ThermoML archive (doi:10.1016/j.fluid.2017.12.026).
Several values for one entry are separate records, joined by “and”; a condition that tells them apart may be missing. Equal entries are not always repeated.

Settings: Coaxial cylinder method

CCCCC [pentane]
Settings	thermal conductivity
465.4 K, 9497 kPa, Liquid	0.07785 W/m/K
465.4 K, 9610 kPa, Liquid	0.07785 W/m/K
465.4 K, 9891 kPa, Liquid	0.07814 W/m/K
466.27 K, 100 kPa, Gas	0.03453 W/m/K
466.28 K, 100 kPa, Gas	0.03449 W/m/K
466.29 K, 100 kPa, Gas	0.03442 W/m/K
466.3 K, 100 kPa, Gas	0.03439 W/m/K
466.7 K, 100 kPa, Gas	0.03462 W/m/K
467.36 K, 11000 kPa, Liquid	0.08067 W/m/K
467.36 K, 11500 kPa, Liquid	0.08129 W/m/K
467.36 K, 12000 kPa, Liquid	0.08175 W/m/K
467.36 K, 13000 kPa, Liquid	0.08285 W/m/K
467.36 K, 13800 kPa, Liquid	0.08362 W/m/K
467.36 K, 15200 kPa, Liquid	0.08486 W/m/K
467.36 K, 16000 kPa, Liquid	0.08553 W/m/K
467.36 K, 16500 kPa, Liquid	0.08593 W/m/K
467.36 K, 17000 kPa, Liquid	0.08638 W/m/K
467.36 K, 17500 kPa, Liquid	0.08673 W/m/K
467.36 K, 18000 kPa, Liquid	0.08718 W/m/K
467.36 K, 18500 kPa, Liquid	0.0876 W/m/K
467.36 K, 19000 kPa, Liquid	0.08803 W/m/K
467.36 K, 19500 kPa, Liquid	0.08843 W/m/K
467.36 K, 20000 kPa, Liquid	0.08879 W/m/K
467.36 K, 20500 kPa, Liquid	0.08919 W/m/K
467.36 K, 21000 kPa, Liquid	0.08956 W/m/K
467.36 K, 21500 kPa, Liquid	0.08989 W/m/K
467.36 K, 22000 kPa, Liquid	0.09031 W/m/K
467.36 K, 22500 kPa, Liquid	0.09068 W/m/K
467.36 K, 23000 kPa, Liquid	0.0911 W/m/K
467.36 K, 23500 kPa, Liquid	0.09141 W/m/K
467.36 K, 24000 kPa, Liquid	0.0918 W/m/K
467.36 K, 24500 kPa, Liquid	0.09219 W/m/K
467.36 K, 25000 kPa, Liquid	0.09258 W/m/K
467.36 K, 25500 kPa, Liquid	0.09286 W/m/K
467.36 K, 26000 kPa, Liquid	0.09318 W/m/K
467.36 K, 26500 kPa, Liquid	0.09358 W/m/K
467.36 K, 27000 kPa, Liquid	0.0939 W/m/K
467.36 K, 27500 kPa, Liquid	0.09419 W/m/K
467.36 K, 28000 kPa, Liquid	0.09456 W/m/K
467.36 K, 28500 kPa, Liquid	0.09489 W/m/K
467.36 K, 29000 kPa, Liquid	0.09522 W/m/K
467.36 K, 29500 kPa, Liquid	0.09552 W/m/K
467.36 K, 30000 kPa, Liquid	0.09583 W/m/K
467.36 K, 30500 kPa, Liquid	0.09613 W/m/K
467.36 K, 31000 kPa, Liquid	0.09634 W/m/K
467.36 K, 31280 kPa, Liquid	0.09643 W/m/K
467.36 K, 31300 kPa, Liquid	0.09647 W/m/K
467.36 K, 31340 kPa, Liquid	0.09656 W/m/K
467.76 K, 100 kPa, Gas	0.03471 W/m/K
468.02 K, 100 kPa, Gas	0.03483 W/m/K
468.08 K, 100 kPa, Gas	0.03457 W/m/K
468.57 K, 100 kPa, Gas	0.03481 W/m/K
469.93 K, 100 kPa, Gas	0.03492 W/m/K
470.04 K, 2036 kPa, Gas	0.03754 W/m/K
470.07 K, 100 kPa, Gas	0.03498 W/m/K
470.2 K, 100 kPa, Gas	0.03485 W/m/K
471.68 K, 100 kPa, Gas	0.03523 W/m/K
472.17 K, 1697 kPa, Gas	0.03753 W/m/K
472.21 K, 100 kPa, Gas	0.03519 W/m/K
472.84 K, 100 kPa, Gas	0.03528 W/m/K
472.97 K, 100 kPa, Gas	0.03526 W/m/K
473.01 K, 100 kPa, Gas	0.03533 W/m/K
473.86 K, 100 kPa, Gas	0.03563 W/m/K
474.81 K, 100 kPa, Gas	0.03571 W/m/K
475.4 K, 100 kPa, Gas	0.03567 W/m/K
475.7 K, 10375 kPa, Gas	0.07726 W/m/K
475.7 K, 17575 kPa, Gas	0.0849 W/m/K
475.7 K, 19975 kPa, Gas	0.08712 W/m/K
475.7 K, 24775 kPa, Gas	0.0897 W/m/K
475.7 K, 29975 kPa, Gas	0.09365 W/m/K
475.7 K, 40275 kPa, Gas	0.09992 W/m/K
475.7 K, 48475 kPa, Gas	0.1033 W/m/K
476.21 K, 100 kPa, Gas	0.03593 W/m/K
478.08 K, 100 kPa, Gas	0.03587 W/m/K
478.2 K, 100 kPa, Gas	0.03595 W/m/K
478.5 K, 2001 kPa, Gas	0.03835 W/m/K
478.5 K, 10175 kPa, Gas	0.07793 W/m/K
478.5 K, 19775 kPa, Gas	0.08695 W/m/K
478.5 K, 20375 kPa, Gas	0.08696 W/m/K
478.5 K, 30175 kPa, Gas	0.09387 W/m/K
478.5 K, 32975 kPa, Gas	0.09616 W/m/K
478.5 K, 40175 kPa, Gas	0.1002 W/m/K
478.5 K, 46675 kPa, Gas	0.1028 W/m/K
479.9 K, 100 kPa, Gas	0.03642 W/m/K
482.02 K, 100 kPa, Gas	0.03645 W/m/K
482.02 K, 2180 kPa, Gas	0.03995 W/m/K
484.5 K, 7555 kPa, Gas	0.07149 W/m/K
484.5 K, 10055 kPa, Gas	0.0768 W/m/K
484.5 K, 19975 kPa, Gas	0.08666 W/m/K
484.5 K, 25175 kPa, Gas	0.09003 W/m/K
484.5 K, 27775 kPa, Gas	0.09214 W/m/K
485.84 K, 1820 kPa, Gas	0.03954 W/m/K
485.84 K, 1830 kPa, Gas	0.03953 W/m/K
485.84 K, 1886 kPa, Gas	0.03962 W/m/K
485.84 K, 2000 kPa, Gas	0.04018 W/m/K
485.84 K, 2180 kPa, Gas	0.04056 W/m/K
485.84 K, 2260 kPa, Gas	0.04079 W/m/K
485.84 K, 2280 kPa, Gas	0.04036 W/m/K
485.84 K, 2300 kPa, Gas	0.04075 W/m/K
485.84 K, 2560 kPa, Gas	0.04155 W/m/K
487.28 K, 1820 kPa, Gas	0.03982 W/m/K
487.3 K, 100 kPa, Gas	0.03739 W/m/K
497.3 K, 988 kPa, Gas	0.03935 W/m/K
497.3 K, 2518 kPa, Gas	0.04191 W/m/K
497.3 K, 9975 kPa, Gas	0.07419 W/m/K
497.3 K, 19975 kPa, Gas	0.08618 W/m/K
497.3 K, 30375 kPa, Gas	0.09354 W/m/K
497.3 K, 40275 kPa, Gas	0.09941 W/m/K
497.3 K, 49575 kPa, Gas	0.1037 W/m/K
497.65 K, 100 kPa, Gas	0.03875 W/m/K
500.96 K, 100 kPa, Gas	0.03915 W/m/K
523 K, 988 kPa, Gas	0.0425 W/m/K
523 K, 2508 kPa, Gas	0.04516 W/m/K
523 K, 17975 kPa, Gas	0.0821 W/m/K
523 K, 20175 kPa, Gas	0.08444 W/m/K
523 K, 25475 kPa, Gas	0.0885 W/m/K
523 K, 30475 kPa, Gas	0.09129 W/m/K
523 K, 40175 kPa, Gas	0.09665 W/m/K
523 K, 43475 kPa, Gas	0.09824 W/m/K
523 K, 49975 kPa, Gas	0.1014 W/m/K
526.4 K, 2200 kPa, Gas	0.04473 W/m/K
526.4 K, 2300 kPa, Gas	0.0457 W/m/K
526.4 K, 2400 kPa, Gas	0.0457 W/m/K
526.4 K, 2500 kPa, Gas	0.0457 W/m/K
526.4 K, 2600 kPa, Gas	0.04565 W/m/K
526.4 K, 2700 kPa, Gas	0.0456 W/m/K
526.4 K, 2800 kPa, Gas	0.04599 W/m/K
526.4 K, 2900 kPa, Gas	0.0465 W/m/K
526.4 K, 3000 kPa, Gas	0.04712 W/m/K
526.4 K, 3300 kPa, Gas	0.04771 W/m/K
526.4 K, 3600 kPa, Gas	0.04853 W/m/K
526.4 K, 3700 kPa, Gas	0.04799 W/m/K
526.4 K, 3800 kPa, Gas	0.04888 W/m/K
526.54 K, 2200 kPa, Gas	0.04492 W/m/K
526.57 K, 100 kPa, Gas	0.04253 W/m/K
576.1 K, 100 kPa, Gas	0.04957 W/m/K
576.1 K, 988 kPa, Gas	0.05094 W/m/K
576.1 K, 2417 kPa, Gas	0.05148 W/m/K
576.1 K, 2508 kPa, Gas	0.05179 W/m/K
576.1 K, 4048 kPa, Gas	0.05495 W/m/K
576.1 K, 20475 kPa, Gas	0.08464 W/m/K
576.1 K, 22475 kPa, Gas	0.08627 W/m/K
576.1 K, 30275 kPa, Gas	0.09057 W/m/K
576.1 K, 30575 kPa, Gas	0.09 W/m/K
576.1 K, 40175 kPa, Gas	0.09709 W/m/K
576.1 K, 40975 kPa, Gas	0.09601 W/m/K
576.1 K, 51275 kPa, Gas	0.1023 W/m/K
618.2 K, 7584 kPa, Gas	0.06457 W/m/K
618.2 K, 9985 kPa, Gas	0.06826 W/m/K
618.2 K, 11475 kPa, Gas	0.07159 W/m/K
618.2 K, 12945 kPa, Gas	0.07331 W/m/K
618.2 K, 12985 kPa, Gas	0.07397 W/m/K
618.2 K, 14975 kPa, Gas	0.07629 W/m/K
618.2 K, 18875 kPa, Gas	0.08227 W/m/K and 0.08277 W/m/K
621.2 K, 100 kPa, Gas	0.05581 W/m/K
621.2 K, 10375 kPa, Gas	0.06836 W/m/K
621.2 K, 15375 kPa, Gas	0.07737 W/m/K
621.2 K, 20275 kPa, Gas	0.08383 W/m/K
621.2 K, 22975 kPa, Gas	0.08581 W/m/K
621.2 K, 30175 kPa, Gas	0.09232 W/m/K
621.2 K, 39275 kPa, Gas	0.09614 W/m/K
621.2 K, 40375 kPa, Gas	0.09714 W/m/K
621.2 K, 49975 kPa, Gas	0.1015 W/m/K
621.2 K, 53675 kPa, Gas	0.1031 W/m/K
621.2 K, 53975 kPa, Gas	0.103 W/m/K
